Data: ChEMBL document CHEMBL5303573, “Mapping human microbiome drug metabolism by gut bacteria and their genes” (Nature, 2019)

How the values were obtained:
[1] = The drug is tested on Clostridium spiroforme strain: DSM1552 for biotransformation. The drug concentrations were measured before and after a 12-h incubation by liquid-chromatography-coupled mass spectrometry (LC–MS); settings: thomasclavelia spiroformis, 2 µM
[2] = The drug is tested on Proteus penneri strain: ATCC35198 for biotransformation. The drug concentrations were measured before and after a 12-h incubation by liquid-chromatography-coupled mass spectrometry (LC–MS); settings: 2 µM
[3] = The drug is tested on Providencia alcalifaciens strain: DSM30120 for biotransformation. The drug concentrations were measured before and after a 12-h incubation by liquid-chromatography-coupled mass spectrometry (LC–MS); settings: 2 µM
[4] = The drug is tested on Bacteroides fragilis strain: T(B)9 for biotransformation. The drug concentrations were measured before and after a 12-h incubation by liquid-chromatography-coupled mass spectrometry (LC–MS); settings: 2 µM
Lipase = molecular target: T1, Lipase (Bacteroides thetaiotaomicron, UniProt Q8A3J3); assay: The drug is tested on Bacteroides thetaiotaomicron strain: VPI-5482 for biotransformation. The drug concentrations were measured before and after a 12-h incubation by liquid-chromatography-coupled mass spectrometry (LC–MS); format: ADME; parameters: dose 2 uM; settings: 2 µM
T1 sequence (Q8A3J3 whole entry): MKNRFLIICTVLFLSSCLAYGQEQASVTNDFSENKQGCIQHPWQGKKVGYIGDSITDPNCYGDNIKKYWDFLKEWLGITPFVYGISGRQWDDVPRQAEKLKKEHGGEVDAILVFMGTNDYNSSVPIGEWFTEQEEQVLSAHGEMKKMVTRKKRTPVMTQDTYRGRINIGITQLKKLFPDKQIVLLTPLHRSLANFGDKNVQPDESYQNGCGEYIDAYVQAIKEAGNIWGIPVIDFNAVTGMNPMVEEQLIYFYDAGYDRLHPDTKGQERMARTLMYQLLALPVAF

Diguanylate cyclase = molecular target: T2, Diguanylate cyclase (Collinsella aerofaciens, UniProt A4EB91); assay: (§1) The drug is tested on Collinsella aerofaciens strain: ATCC25986 for biotransformation. The drug concentrations were measured before and after a 12-h incubation by liquid-chromatography-coupled mass spectrometry (LC–MS); format: ADME; parameters: dose 2 uM; settings: 2 µM
T2 sequence (A4EB91 whole entry): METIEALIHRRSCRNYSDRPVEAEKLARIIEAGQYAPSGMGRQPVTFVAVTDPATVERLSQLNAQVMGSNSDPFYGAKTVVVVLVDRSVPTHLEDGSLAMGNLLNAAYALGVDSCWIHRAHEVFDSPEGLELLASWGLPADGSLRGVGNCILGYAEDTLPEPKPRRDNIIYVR

Flavodoxin = molecular target: T3, Flavodoxin (Collinsella aerofaciens, UniProt A4ED08); assay: as §1; format: ADME; parameters: dose 2 uM; settings: 2 µM
T3 sequence (A4ED08 whole entry): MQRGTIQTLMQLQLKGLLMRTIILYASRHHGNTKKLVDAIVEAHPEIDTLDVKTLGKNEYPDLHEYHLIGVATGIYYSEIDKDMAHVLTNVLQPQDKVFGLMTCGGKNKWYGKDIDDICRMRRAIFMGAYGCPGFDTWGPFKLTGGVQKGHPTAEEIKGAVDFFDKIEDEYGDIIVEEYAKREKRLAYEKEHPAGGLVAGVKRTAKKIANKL

GDSL-like protein = molecular target: T4, GDSL-like protein (Collinsella aerofaciens, UniProt A4E7D0); assay: as §1; format: ADME; parameters: dose 2 uM; settings: 2 µM
T4 sequence (A4E7D0 whole entry): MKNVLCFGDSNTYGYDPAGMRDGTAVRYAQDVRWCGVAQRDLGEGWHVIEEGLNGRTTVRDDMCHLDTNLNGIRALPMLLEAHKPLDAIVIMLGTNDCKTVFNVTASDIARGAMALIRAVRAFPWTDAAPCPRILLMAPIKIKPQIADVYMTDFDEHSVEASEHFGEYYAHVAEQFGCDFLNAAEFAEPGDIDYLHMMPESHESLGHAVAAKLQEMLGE

[5] = molecular target: T5, Pyridine nucleotide-disulfide oxidoreductase (Collinsella aerofaciens, UniProt A4EBM5); assay: as §1; format: ADME; parameters: dose 2 uM; settings: 2 µM
T5 sequence (A4EBM5 whole entry): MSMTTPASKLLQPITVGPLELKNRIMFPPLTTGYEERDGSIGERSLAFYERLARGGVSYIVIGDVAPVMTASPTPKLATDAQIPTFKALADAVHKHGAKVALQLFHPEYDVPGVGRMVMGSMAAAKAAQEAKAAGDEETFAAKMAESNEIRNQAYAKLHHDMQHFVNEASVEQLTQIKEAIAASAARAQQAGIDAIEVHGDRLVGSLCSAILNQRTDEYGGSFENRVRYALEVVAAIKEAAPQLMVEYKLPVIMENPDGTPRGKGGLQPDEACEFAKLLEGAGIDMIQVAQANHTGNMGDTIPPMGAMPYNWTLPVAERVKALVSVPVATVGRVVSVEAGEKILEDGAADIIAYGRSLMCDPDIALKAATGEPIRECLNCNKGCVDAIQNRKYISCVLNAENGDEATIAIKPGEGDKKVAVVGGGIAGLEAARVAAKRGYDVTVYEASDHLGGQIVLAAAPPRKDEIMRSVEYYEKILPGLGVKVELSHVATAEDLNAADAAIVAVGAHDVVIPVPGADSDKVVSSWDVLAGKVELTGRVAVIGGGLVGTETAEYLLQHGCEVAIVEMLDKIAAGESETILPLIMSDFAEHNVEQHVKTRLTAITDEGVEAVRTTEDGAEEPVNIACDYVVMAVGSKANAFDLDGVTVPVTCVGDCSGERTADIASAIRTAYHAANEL

[6] = molecular target: T6, SGNH hydrolase-type esterase domain-containing protein (Phocaeicola dorei, UniProt B6W293); assay: (§2) The drug is tested on Bacteroides dorei strain: DSM17855 for biotransformation. The drug concentrations were measured before and after a 12-h incubation by liquid-chromatography-coupled mass spectrometry (LC–MS); format: ADME; parameters: dose 2 uM; settings: 2 µM
T6 sequence (B6W293 whole entry): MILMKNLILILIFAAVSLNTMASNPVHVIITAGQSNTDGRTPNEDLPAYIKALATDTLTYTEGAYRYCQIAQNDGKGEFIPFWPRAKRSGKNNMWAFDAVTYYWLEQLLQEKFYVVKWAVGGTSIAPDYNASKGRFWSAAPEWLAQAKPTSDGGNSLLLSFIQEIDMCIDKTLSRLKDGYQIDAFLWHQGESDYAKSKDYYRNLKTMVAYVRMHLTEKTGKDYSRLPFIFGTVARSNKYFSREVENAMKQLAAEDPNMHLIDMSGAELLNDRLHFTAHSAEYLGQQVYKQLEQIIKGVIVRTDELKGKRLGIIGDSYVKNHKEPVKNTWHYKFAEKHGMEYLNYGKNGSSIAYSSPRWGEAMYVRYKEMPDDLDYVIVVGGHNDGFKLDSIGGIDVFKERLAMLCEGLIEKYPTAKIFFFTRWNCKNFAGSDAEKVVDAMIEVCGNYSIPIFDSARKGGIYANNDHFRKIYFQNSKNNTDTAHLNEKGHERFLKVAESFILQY

[7] = molecular target: T7, Steroid 5-alpha reductase C-terminal domain-containing protein (Phocaeicola dorei, UniProt B6W0N3); assay: as §2; format: ADME; parameters: dose 2 uM; settings: 2 µM
T7 sequence (B6W0N3 whole entry): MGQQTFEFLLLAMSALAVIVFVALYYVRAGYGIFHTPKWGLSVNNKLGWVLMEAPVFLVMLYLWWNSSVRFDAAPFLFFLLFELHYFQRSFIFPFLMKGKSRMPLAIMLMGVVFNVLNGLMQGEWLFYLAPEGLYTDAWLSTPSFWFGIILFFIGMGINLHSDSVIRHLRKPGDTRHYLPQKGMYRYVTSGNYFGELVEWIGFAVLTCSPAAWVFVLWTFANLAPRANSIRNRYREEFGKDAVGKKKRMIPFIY

SMILES | Bacterial Biotransformation [1] | Bacterial Biotransformation [2] | Bacterial Biotransformation [3] | Bacterial Biotransformation [4] | Bacterial Biotransformation (Lipase) | Bacterial Biotransformation (Diguanylate cyclase) | Bacterial Biotransformation (Flavodoxin) | Bacterial Biotransformation (GDSL-like protein) | Bacterial Biotransformation [5] | Bacterial Biotransformation [6] | Bacterial Biotransformation [7]
CCCC(=O)Nc1ccc(OCC(O)CNC(C)C)c(C(C)=O)c1 (stereo not drawn) [ACEBUTOLOL] | Compound NOT metabolized | – | – | – | – | – | – | – | – | – | –
CC(C)NCC(O)COc1ccc(CC(N)=O)cc1 (stereo not drawn) [ATENOLOL] | Compound NOT metabolized | Compound NOT metabolized | Compound NOT metabolized | – | – | – | – | – | – | – | –
CC(C)NCC(O)COc1ccc(CCOCC2CC2)cc1 (stereo not drawn) [BETAXOLOL] | Compound NOT metabolized | Compound NOT metabolized | Compound NOT metabolized | Compound NOT metabolized | – | – | – | – | – | – | –
CC(=O)Oc1ccc(C(c2ccc(OC(C)=O)cc2)c2ccccn2)cc1 [BISACODYL] | – | – | – | – | Compound metabolized | Compound NOT metabolized | Compound NOT metabolized | Compound metabolized | Compound NOT metabolized | Compound metabolized | Compound NOT metabolized
CC(NC(C)(C)C)C(=O)c1cccc(Cl)c1 (stereo not drawn) [BUPROPION] | Compound NOT metabolized | – | – | – | – | – | – | – | – | – | –
COc1ccccc1OCCNCC(O)COc1cccc2[nH]c3ccccc3c12 (stereo not drawn) [CARVEDILOL] | Compound metabolized | – | – | – | – | – | – | – | – | – | –
O=C(O)COCCN1CCN(C(c2ccccc2)c2ccc(Cl)cc2)CC1 (stereo not drawn) [CETIRIZINE] | – | Compound NOT metabolized | Compound NOT metabolized | Compound metabolized | – | – | – | – | – | – | –
CN/C(=N/CCSCc1nc[nH]c1C)NC#N [CIMETIDINE] | Compound NOT metabolized | Compound NOT metabolized | Compound NOT metabolized | Compound metabolized | – | – | – | – | – | – | –
Clc1cccc(Cl)c1N=C1NCCN1 [CLONIDINE] | Compound NOT metabolized | Compound NOT metabolized | Compound NOT metabolized | Compound metabolized | – | – | – | – | – | – | –
COC(=O)[C@H](c1ccccc1Cl)N1CCc2sccc2C1.O=S(=O)(O)O [CLOPIDOGREL BISULFATE] | Compound NOT metabolized | Compound NOT metabolized | Compound NOT metabolized | Compound metabolized | – | – | – | – | – | – | –
CN1CCN(C2=Nc3cc(Cl)ccc3Nc3ccccc32)CC1 [CLOZAPINE] | Compound NOT metabolized | Compound NOT metabolized | – | – | – | – | – | – | – | – | –
CN(C)CCC=C1c2ccccc2C=Cc2ccccc21 [CYCLOBENZAPRINE] | Compound NOT metabolized | Compound NOT metabolized | Compound NOT metabolized | Compound NOT metabolized | – | – | – | – | – | – | –
O=P1(N(CCCl)CCCl)NCCCO1 (stereo not drawn) [CYCLOPHOSPHAMIDE ANHYDROUS] | Compound NOT metabolized | Compound NOT metabolized | Compound NOT metabolized | Compound NOT metabolized | – | – | – | – | – | – | –
C#C[C@]1(O)CC[C@H]2[C@@H]3CCC4=Cc5oncc5C[C@]4(C)[C@H]3CC[C@@]21C [DANAZOL] | – | – | – | – | Compound NOT metabolized | Compound NOT metabolized | Compound NOT metabolized | Compound NOT metabolized | Compound NOT metabolized | Compound NOT metabolized | Compound NOT metabolized
CC(=O)OCC(=O)[C@@]12N=C(C)O[C@@H]1C[C@H]1[C@@H]3CCC4=CC(=O)C=C[C@]4(C)[C@H]3[C@@H](O)C[C@@]12C [DEFLAZACORT] | – | – | – | – | – | Compound NOT metabolized | Compound NOT metabolized | Compound NOT metabolized | Compound NOT metabolized | – | Compound NOT metabolized
CC(=O)Nc1ccc(OC(C)=O)cc1 [DIACETAMATE] | – | – | – | – | Compound metabolized | Compound NOT metabolized | Compound NOT metabolized | Compound metabolized | Compound NOT metabolized | Compound metabolized | Compound NOT metabolized
c1ccc([C@H]2CN3CCSC3=N2)cc1 [LEVAMISOLE] | Compound NOT metabolized | Compound metabolized | – | Compound metabolized | – | – | – | – | – | – | –
CCOC(=O)C1=C(C)NC(C)=C(C(=O)OC)C1c1cccc([N+](=O)[O-])c1 (stereo not drawn) [NITRENDIPINE] | – | – | – | – | – | Compound metabolized | Compound NOT metabolized | Compound NOT metabolized | Compound NOT metabolized | Compound NOT metabolized | Compound NOT metabolized
CCOc1cc(CC(=O)N[C@@H](CC(C)C)c2ccccc2N2CCCCC2)ccc1C(=O)O [REPAGLINIDE] | Compound NOT metabolized | – | – | – | – | – | – | – | – | – | –
O=C(O)c1cc(/N=N/c2ccc(S(=O)(=O)Nc3ccccn3)cc2)ccc1O [SULFASALAZINE] | – | – | – | – | Compound NOT metabolized | Compound NOT metabolized | Compound NOT metabolized | – | Compound NOT metabolized | Compound NOT metabolized | Compound NOT metabolized
CCS(=O)(=O)CCn1c([N+](=O)[O-])cnc1C [TINIDAZOLE] | – | – | – | – | Compound NOT metabolized | – | Compound NOT metabolized | Compound NOT metabolized | Compound metabolized | Compound NOT metabolized | Compound NOT metabolized
